In the NIST ThermoML archive (doi:10.1016/j.tca.2015.01.022):
± gives the expanded uncertainty stated by the source.

Experiment: molar heat capacity at constant pressure
Conditions: 101.33 kPa, Small (less than 1 g) adiabatic calorimetry

CCCCCCCC[n+]1ccn(C)c1.F[B-](F)(F)F [1-methyl-3-octylimidazolium tetrafluoroborate]
molar heat capacity at constant pressure (215.19 K, Liquid): 463.2 ± 2.4 J/K/mol | molar heat capacity at constant pressure (215.24 K, Crystal): 350 ± 1.8 J/K/mol | molar heat capacity at constant pressure (216.42 K, Crystal): 352.2 ± 1.8 J/K/mol | molar heat capacity at constant pressure (217.13 K, Liquid): 463.5 ± 2.4 J/K/mol | molar heat capacity at constant pressure (217.18 K, Crystal): 355 ± 1.8 J/K/mol | molar heat capacity at constant pressure (218.47 K, Crystal): 357.6 ± 1.8 J/K/mol | molar heat capacity at constant pressure (219.08 K, Liquid): 463.8 ± 2.4 J/K/mol | molar heat capacity at constant pressure (219.11 K, Crystal): 360.4 ± 1.9 J/K/mol | molar heat capacity at constant pressure (220 K, Crystal): 349.9 ± 1.8 J/K/mol | molar heat capacity at constant pressure (220 K, Liquid): 463.8 ± 2.4 J/K/mol | molar heat capacity at constant pressure (220.51 K, Crystal): 362.9 ± 1.9 J/K/mol | molar heat capacity at constant pressure (221.02 K, Crystal): 365.7 ± 1.9 J/K/mol | molar heat capacity at constant pressure (221.02 K, Liquid): 463.8 ± 2.4 J/K/mol | molar heat capacity at constant pressure (222.53 K, Crystal): 369.1 ± 1.9 J/K/mol | molar heat capacity at constant pressure (222.93 K, Crystal): 371.1 ± 1.9 J/K/mol | molar heat capacity at constant pressure (222.96 K, Liquid): 464.1 ± 2.4 J/K/mol | molar heat capacity at constant pressure (224.55 K, Crystal): 375 ± 1.9 J/K/mol | molar heat capacity at constant pressure (224.82 K, Crystal): 376.7 ± 1.9 J/K/mol | molar heat capacity at constant pressure (224.9 K, Liquid): 464.7 ± 2.4 J/K/mol | molar heat capacity at constant pressure (226.56 K, Crystal): 381 ± 2 J/K/mol | molar heat capacity at constant pressure (226.7 K, Crystal): 382.4 ± 2 J/K/mol | molar heat capacity at constant pressure (226.85 K, Liquid): 464.9 ± 2.4 J/K/mol | molar heat capacity at constant pressure (228.55 K, Crystal): 387.4 ± 2 J/K/mol | molar heat capacity at constant pressure (228.58 K, Crystal): 388.3 ± 2 J/K/mol | molar heat capacity at constant pressure (228.8 K, Liquid): 465.8 ± 2.4 J/K/mol | molar heat capacity at constant pressure (230 K, Crystal): 364.9 ± 1.9 J/K/mol | molar heat capacity at constant pressure (230 K, Liquid): 465.8 ± 2.4 J/K/mol | molar heat capacity at constant pressure (230.44 K, Crystal): 395.1 ± 2 J/K/mol | molar heat capacity at constant pressure (230.53 K, Crystal): 394.5 ± 2 J/K/mol | molar heat capacity at constant pressure (230.75 K, Liquid): 466.6 ± 2.4 J/K/mol | molar heat capacity at constant pressure (232.29 K, Crystal): 402.4 ± 2.1 J/K/mol | molar heat capacity at constant pressure (232.49 K, Crystal): 402.1 ± 2.1 J/K/mol | molar heat capacity at constant pressure (234.12 K, Crystal): 411.7 ± 2.1 J/K/mol | molar heat capacity at constant pressure (234.44 K, Crystal): 412 ± 2.1 J/K/mol | molar heat capacity at constant pressure (235.93 K, Crystal): 423.8 ± 2.2 J/K/mol | molar heat capacity at constant pressure (236.36 K, Crystal): 424.6 ± 2.2 J/K/mol | molar heat capacity at constant pressure (237.7 K, Crystal): 441.5 ± 2.3 J/K/mol | molar heat capacity at constant pressure (238.24 K, Crystal): 445.5 ± 2.3 J/K/mol | molar heat capacity at constant pressure (239.43 K, Crystal): 472 ± 2.4 J/K/mol | molar heat capacity at constant pressure (240 K, Crystal): 379.9 ± 1.9 J/K/mol | molar heat capacity at constant pressure (240 K, Liquid): 468.9 ± 2.4 J/K/mol | molar heat capacity at constant pressure (240.06 K, Crystal): 487.8 ± 2.5 J/K/mol | molar heat capacity at constant pressure (245.81 K, Crystal): 388.6 ± 2 J/K/mol | molar heat capacity at constant pressure (245.81 K, Liquid): 471 ± 2.4 J/K/mol | molar heat capacity at constant pressure (248.34 K, Liquid): 472 ± 2.4 J/K/mol | molar heat capacity at constant pressure (249.07 K, Liquid): 472.3 ± 2.4 J/K/mol | molar heat capacity at constant pressure (250 K, Liquid): 472.6 ± 2.4 J/K/mol | molar heat capacity at constant pressure (250.32 K, Liquid): 472.8 ± 2.4 J/K/mol | molar heat capacity at constant pressure (251 K, Liquid): 473.1 ± 2.4 J/K/mol | molar heat capacity at constant pressure (252.27 K, Liquid): 473.7 ± 2.4 J/K/mol | molar heat capacity at constant pressure (252.93 K, Liquid): 473.9 ± 2.4 J/K/mol | molar heat capacity at constant pressure (254.22 K, Liquid): 474.5 ± 2.4 J/K/mol | molar heat capacity at constant pressure (254.87 K, Liquid): 474.8 ± 2.4 J/K/mol | molar heat capacity at constant pressure (256.17 K, Liquid): 475.4 ± 2.4 J/K/mol | molar heat capacity at constant pressure (256.8 K, Liquid): 475.6 ± 2.4 J/K/mol | molar heat capacity at constant pressure (258.12 K, Liquid): 476.2 ± 2.4 J/K/mol | molar heat capacity at constant pressure (258.74 K, Liquid): 476.5 ± 2.4 J/K/mol | molar heat capacity at constant pressure (260 K, Liquid): 477.3 ± 2.4 J/K/mol | molar heat capacity at constant pressure (260.07 K, Liquid): 477.3 ± 2.4 J/K/mol | molar heat capacity at constant pressure (260.67 K, Liquid): 477.6 ± 2.4 J/K/mol | molar heat capacity at constant pressure (262.02 K, Liquid): 478.2 ± 2.4 J/K/mol | molar heat capacity at constant pressure (262.61 K, Liquid): 478.5 ± 2.4 J/K/mol | molar heat capacity at constant pressure (263.97 K, Liquid): 479.3 ± 2.4 J/K/mol | molar heat capacity at constant pressure (264.54 K, Liquid): 479.6 ± 2.4 J/K/mol | molar heat capacity at constant pressure (265.92 K, Liquid): 480.1 ± 2.4 J/K/mol | molar heat capacity at constant pressure (266.48 K, Liquid): 480.4 ± 2.4 J/K/mol | molar heat capacity at constant pressure (267.87 K, Liquid): 481.3 ± 2.4 J/K/mol | molar heat capacity at constant pressure (268.42 K, Liquid): 481.6 ± 2.4 J/K/mol | molar heat capacity at constant pressure (269.82 K, Liquid): 482.1 ± 2.4 J/K/mol | molar heat capacity at constant pressure (270 K, Liquid): 482.4 ± 2.4 J/K/mol | molar heat capacity at constant pressure (270.35 K, Liquid): 482.4 ± 2.4 J/K/mol | molar heat capacity at constant pressure (271.77 K, Liquid): 483.2 ± 2.5 J/K/mol | molar heat capacity at constant pressure (272.29 K, Liquid): 483.5 ± 2.5 J/K/mol | molar heat capacity at constant pressure (273.73 K, Liquid): 484.4 ± 2.5 J/K/mol | molar heat capacity at constant pressure (274.23 K, Liquid): 484.7 ± 2.5 J/K/mol | molar heat capacity at constant pressure (275.68 K, Liquid): 485.2 ± 2.5 J/K/mol | molar heat capacity at constant pressure (276.16 K, Liquid): 485.5 ± 2.5 J/K/mol | molar heat capacity at constant pressure (277.63 K, Liquid): 486.6 ± 2.5 J/K/mol | molar heat capacity at constant pressure (278.1 K, Liquid): 486.6 ± 2.5 J/K/mol | molar heat capacity at constant pressure (279.58 K, Liquid): 487.8 ± 2.5 J/K/mol | molar heat capacity at constant pressure (280 K, Liquid): 487.7 ± 2.5 J/K/mol | molar heat capacity at constant pressure (281.53 K, Liquid): 488.9 ± 2.5 J/K/mol | molar heat capacity at constant pressure (283.48 K, Liquid): 489.7 ± 2.5 J/K/mol | molar heat capacity at constant pressure (285.44 K, Liquid): 490.9 ± 2.5 J/K/mol | molar heat capacity at constant pressure (287.39 K, Liquid): 492 ± 2.5 J/K/mol | molar heat capacity at constant pressure (289.34 K, Liquid): 493.1 ± 2.5 J/K/mol | molar heat capacity at constant pressure (290 K, Liquid): 493.2 ± 2.5 J/K/mol | molar heat capacity at constant pressure (291.29 K, Liquid): 494.2 ± 2.5 J/K/mol | molar heat capacity at constant pressure (293.24 K, Liquid): 495.4 ± 2.5 J/K/mol | molar heat capacity at constant pressure (295.19 K, Liquid): 496.5 ± 2.5 J/K/mol | molar heat capacity at constant pressure (297.15 K, Liquid): 497.3 ± 2.5 J/K/mol | molar heat capacity at constant pressure (298.15 K, Liquid): 497.8 ± 2.5 J/K/mol | molar heat capacity at constant pressure (299.1 K, Liquid): 498.5 ± 2.5 J/K/mol | molar heat capacity at constant pressure (300 K, Liquid): 498.9 ± 2.5 J/K/mol | molar heat capacity at constant pressure (301.05 K, Liquid): 499.6 ± 2.5 J/K/mol | molar heat capacity at constant pressure (303 K, Liquid): 500.7 ± 2.5 J/K/mol | molar heat capacity at constant pressure (304.95 K, Liquid): 502.1 ± 2.5 J/K/mol | molar heat capacity at constant pressure (306.9 K, Liquid): 503 ± 2.5 J/K/mol | molar heat capacity at constant pressure (308.86 K, Liquid): 504.4 ± 2.6 J/K/mol | molar heat capacity at constant pressure (310 K, Liquid): 504.8 ± 2.5 J/K/mol | molar heat capacity at constant pressure (310.81 K, Liquid): 505.2 ± 2.6 J/K/mol | molar heat capacity at constant pressure (312.76 K, Liquid): 506.4 ± 2.6 J/K/mol | molar heat capacity at constant pressure (314.71 K, Liquid): 507.5 ± 2.6 J/K/mol | molar heat capacity at constant pressure (316.67 K, Liquid): 508.9 ± 2.6 J/K/mol | molar heat capacity at constant pressure (318.62 K, Liquid): 510 ± 2.6 J/K/mol | molar heat capacity at constant pressure (320 K, Liquid): 510.9 ± 2.6 J/K/mol | molar heat capacity at constant pressure (320.57 K, Liquid): 511.1 ± 2.6 J/K/mol | molar heat capacity at constant pressure (322.53 K, Liquid): 512.3 ± 2.6 J/K/mol | molar heat capacity at constant pressure (324.48 K, Liquid): 513.4 ± 2.6 J/K/mol | molar heat capacity at constant pressure (326.44 K, Liquid): 514.8 ± 2.6 J/K/mol | molar heat capacity at constant pressure (328.39 K, Liquid): 515.9 ± 2.6 J/K/mol | molar heat capacity at constant pressure (330 K, Liquid): 517.1 ± 2.6 J/K/mol | molar heat capacity at constant pressure (330.34 K, Liquid): 517.1 ± 2.6 J/K/mol | molar heat capacity at constant pressure (332.3 K, Liquid): 518.5 ± 2.6 J/K/mol | molar heat capacity at constant pressure (334.25 K, Liquid): 519.9 ± 2.6 J/K/mol | molar heat capacity at constant pressure (336.21 K, Liquid): 521 ± 2.6 J/K/mol | molar heat capacity at constant pressure (338.16 K, Liquid): 522.4 ± 2.6 J/K/mol | molar heat capacity at constant pressure (340 K, Liquid): 523.6 ± 2.7 J/K/mol | molar heat capacity at constant pressure (340.11 K, Liquid): 523.8 ± 2.7 J/K/mol | molar heat capacity at constant pressure (342.07 K, Liquid): 524.7 ± 2.7 J/K/mol | molar heat capacity at constant pressure (344.02 K, Liquid): 526.4 ± 2.7 J/K/mol | molar heat capacity at constant pressure (345.98 K, Liquid): 527.2 ± 2.7 J/K/mol | molar heat capacity at constant pressure (347.93 K, Liquid): 528.9 ± 2.7 J/K/mol | molar heat capacity at constant pressure (349.89 K, Liquid): 530.3 ± 2.7 J/K/mol | molar heat capacity at constant pressure (350 K, Liquid): 530.3 ± 2.7 J/K/mol | molar heat capacity at constant pressure (351.85 K, Liquid): 531.7 ± 2.7 J/K/mol | molar heat capacity at constant pressure (353.8 K, Liquid): 533.1 ± 2.7 J/K/mol | molar heat capacity at constant pressure (355.76 K, Liquid): 534.2 ± 2.7 J/K/mol | molar heat capacity at constant pressure (357.71 K, Liquid): 535.7 ± 2.7 J/K/mol | molar heat capacity at constant pressure (359.66 K, Liquid): 536.8 ± 2.7 J/K/mol | molar heat capacity at constant pressure (360 K, Liquid): 537.1 ± 2.7 J/K/mol | molar heat capacity at constant pressure (361.61 K, Liquid): 538.2 ± 2.7 J/K/mol | molar heat capacity at constant pressure (363.57 K, Liquid): 539.3 ± 2.7 J/K/mol | molar heat capacity at constant pressure (365.52 K, Liquid): 540.7 ± 2.7 J/K/mol | molar heat capacity at constant pressure (367.47 K, Liquid): 542.4 ± 2.7 J/K/mol | molar heat capacity at constant pressure (370 K, Liquid): 544.2 ± 2.8 J/K/mol
